Read-outs that look alike come from different tables or passages of the source.
How the values were obtained:
Type in all cases: cell-based
E. coli = experiment: MIC broth microdilution (CLSI); settings: Escherichia coli
Method: (§1) Minimum inhibitory concentrations for representative example compounds herein were determined by a broth microdilution method in accordance with the Clinical and Laboratory Standards Institute (CLSI) guidelines. In brief, organism suspensions were adjusted to a 0.5 McFarland standard to yield a final inoculum between 3×10^5 and 7×10^5 colony-forming units (CFU)/mL. The inoculum was prepared by suspension of a colony from an agar plate that was prepared the previous day. Compound dilutions and inoculum were prepared in sterile, cation adjusted Mueller-Hinton Broth (Beckton Dickinson).
(§2) Bacteria were suspended in sterile saline and added to each assay plate to obtain a final concentration of 5×10^5 CFU/mL. An inoculum volume of 100 μL was added to wells containing 100 μL of broth with 2-fold serial dilutions of the test compound. All inoculated microdilution trays were incubated in ambient air at 35° C. for 18-24 hours. Following incubation, the lowest concentration of the compound that prevented visible growth (OD 600 nm<0.05) is recorded was the MIC. […] Performance of the assay was monitored by the use of laboratory quality-control strains and a standard compound with a defined MIC spectrum (neomycin), in accordance with CLSI guidelines.

A. baumannii = experiment: MIC broth microdilution (CLSI); settings: Acinetobacter baumannii
Method: as §1, §2

P. aeruginosa [1] = experiment: MIC broth microdilution (CLSI); settings: Pseudomonas aeruginosa
Method: as §1, §2

[2] = tested on: AG-resistant P. aeruginosa; experiment: Antibacterial surveillance of clinical isolates (MIC50/90); settings: 50 isolates with defined aminoglycoside resistance
Method: as §1, §2
(§3) Several compounds of the disclosure (Compound 1, 2, and 3) were further evaluated against several hundred bacterial isolates (isolated in the United States and Europe, 1:1) selected from the SENTRY Antimicrobial Surveillance Program (JMI Laboratories, North Liberty, Iowa). The set of clinical isolates included 300 randomly selected Enterobacterales, 103 randomly selected P. aeruginosa, 100 randomly selected A. baumannii-calcoaceticus, 20 randomly selected Methicillin-sensitive S. aureus (MSSA), and 30 randomly selected Methicillin-resistant S. aureus (MRSA). In addition, 101 Enterobacterales and 50 P. aeruginosa isolates with genetically defined mechanisms of aminoglycoside resistance were included. The MIC values at which ≥50% (MIC50) and ≥90% (MIC90) of isolates within a given set are inhibited were determined for each compound against each set of organisms.

[3] = tested on: Methicillin-resistant S. aureus (MRSA); experiment: as above; settings: 30 isolates
Method: as §1, §2, §3

[4] = tested on: A. baumannii-calcoaceticus; experiment: as above; settings: 100 isolates
Method: as §1, §2, §3

[5] = tested on: Methicillin-sensitive S. aureus (MSSA); experiment: as above; settings: 20 isolates
Method: as §1, §2, §3

P. aeruginosa [6] = experiment: as above; settings: 103 isolates
Method: as §1, §2, §3

[7] = tested on: AG-resistant Enterobacterales; experiment: as above; settings: 101 isolates with defined aminoglycoside resistance
Method: as §1, §2, §3

[8] = read-out: Activity (MIC), strain NECO0003, ΔtolC
[9] = read-out: Activity (MIC), strain NECO0245, ArmA
[10] = strain NECO0001, WT QC, read-out: Activity (MIC)
[11] = strain NECO0002, WT, read-out: Activity (MIC)
[12] = strain NECO0243, empty vector, read-out: Activity (MIC)
[13] = strain NECO0244, AAC(6')-Ib, read-out: Activity (MIC)
[14] = strain NECO0289, APH(3')-Ia, read-out: Activity (MIC)
[15] = strain NECO0302, AAC(3)-IIa, read-out: Activity (MIC)
[16] = strain NECO0350, AAC(2')-I, read-out: Activity (MIC)
[17] = strain NECO0359, ANT(4')-Ia, read-out: Activity (MIC)
[18] = read-out: Activity (MIC), strain NABA0007, ΔadeJK efflux
[19] = strain NABA0006, WT parent, read-out: Activity (MIC)
[20] = strain NABA0020, AME negative strain, read-out: Activity (MIC)
[21] = read-out: Activity (MIC), strain NPAE0006, Efflux KO, Aph(3')-IIb
[22] = read-out: Activity (MIC), strain NPAE0010, MexXY over-expressed, Aph(3')-IIb
[23] = strain NPAE0001, WT Aph(3')-IIb, QC, read-out: Activity (MIC)
[24] = strain NPAE0002, WT Aph(3')-IIb, read-out: Activity (MIC)
[25] = strain NPAE0359, aph(3')-IIb KO (tetR), read-out: Activity (MIC)

Row | Molecule | MIC (E. coli; [8]) | MIC (E. coli; [9]) | MIC (E. coli; [10]) | MIC (E. coli; [11]) | MIC (E. coli; [12]) | MIC (E. coli; [13]) | MIC (E. coli; [14]) | MIC (E. coli; [15]) | MIC (E. coli; [16]) | MIC (E. coli; [17]) | MIC (A. baumannii; [18]) | MIC (A. baumannii; [19]) | MIC (A. baumannii; [20]) | MIC (P. aeruginosa [1]; [21]) | MIC (P. aeruginosa [1]; [22]) | MIC (P. aeruginosa [1]; [23]) | MIC (P. aeruginosa [1]; [24]) | MIC (P. aeruginosa [1]; [25]) | further results
1 | C[C@@H](N)[C@@H]1CC[C@@H](N)[C@@H](O[C@@H]2[C@@H](N)[C@H](O)[C@@H](NC(=O)[C@@H](O)[C@H](F)CN)[C@H](O)[C@H]2O[C@@H]2O[C@H](CO)[C@@H](O[C@H]3O[C@@H](CN)[C@@H](O)[C@H](O)[C@H]3N)[C@H]2O)O1 [Compound 4, (2R,3R)-4-amino-N-((1R,2S,3S,4R,5R,6S)-3-amino-4-(((2R,3R,6S)-3-amino-6-((R)-1-aminoethyl)tetrahydro-2H-pyran-2-yl)oxy)-5-(((2S,3R,4S,5R)-4-(((2R,3R,4R,5S,6S)-3-amino-6-(aminomethyl)-4,5-dihydroxytetrahydro-2H-pyran-2-yl)oxy)-3-hydroxy-5-(hydroxymethyl)tetrahydrofuran-2-yl)oxy)-2,6-dihydroxycyclohexyl)-3-fluoro-2-hydroxybutanamide] | < 16 µg/mL | < 16 µg/mL | < 16 µg/mL | < 16 µg/mL | < 16 µg/mL | < 16 µg/mL | < 16 µg/mL | < 16 µg/mL | < 16 µg/mL | < 16 µg/mL | < 16 µg/mL | < 16 µg/mL | < 16 µg/mL | < 16 µg/mL | < 16 µg/mL | < 16 µg/mL | < 16 µg/mL | < 16 µg/mL | –
2 | C[C@@H](N)[C@@H]1CC[C@@H](N)[C@@H](O[C@@H]2[C@@H](N)[C@H](O)[C@@H](NC(=O)[C@@H](O)CCN)[C@H](O)[C@H]2O[C@@H]2O[C@H](CO)[C@@H](O[C@H]3O[C@@H](CN)[C@@H](O)[C@H](O)[C@H]3N)[C@H]2O)O1 [Compound 5, (S)-4-Amino-N-((1R,2S,3S,4R,5R,6S)-3-Amino-4-(((2R,3R,6S)-3-Amino-6-((R)-1-Aminoethyl)Tetrahydro-2H-Pyran-2-Yl)Oxy)-5-(((2S,3R,4S,5R)-4-(((2R,3R,4R,5S,6S)-3-Amino-6-(Aminomethyl)-4,5-Dihydroxytetrahydro-2H-Pyran-2-Yl)Oxy)-3-Hydroxy-5-(Hydroxymethyl)Tetrahydrofuran-2-Yl)Oxy)-2,6-Dihydroxycyclohexyl)-2-Hydroxybutanamide] | < 16 µg/mL | < 16 µg/mL | < 16 µg/mL | < 16 µg/mL | < 16 µg/mL | < 16 µg/mL | < 16 µg/mL | < 16 µg/mL | < 16 µg/mL | < 16 µg/mL | < 16 µg/mL | < 16 µg/mL | < 16 µg/mL | < 16 µg/mL | < 16 µg/mL | < 16 µg/mL | < 16 µg/mL | < 16 µg/mL | –
3 | CN[C@@H](C)[C@@H]1CC[C@@H](N)[C@@H](O[C@@H]2[C@@H](N)[C@H](O)[C@@H](NC(=O)[C@@H](O)[C@H](F)CN)[C@H](O)[C@H]2O[C@@H]2O[C@H](CO)[C@@H](O[C@H]3O[C@@H](CN)[C@@H](O)[C@H](O)[C@H]3N)[C@H]2O)O1 [Compound 7, (2R,3R)-4-amino-N-((1R,2S,3S,4R,5R,6S)-3-amino-4-(((2R,3R,6S)-3-amino-6-((S)-1-(methylamino)ethyl)tetrahydro-2H-pyran-2-yl)oxy)-5-(((2S,3R,4S,5R)-4-(((2R,3R,4R,5S,6S)-3-amino-6-(aminomethyl)-4,5-dihydroxytetrahydro-2H-pyran-2-yl)oxy)-3-hydroxy-5-(hydroxymethyl)tetrahydrofuran-2-yl)oxy)-2,6-dihydroxycyclohexyl)-3-fluoro-2-hydroxybutanamide] | < 16 µg/mL | < 16 µg/mL | < 16 µg/mL | < 16 µg/mL | < 16 µg/mL | < 16 µg/mL | > 16 µg/mL | < 16 µg/mL | < 16 µg/mL | < 16 µg/mL | < 16 µg/mL | < 16 µg/mL | < 16 µg/mL | < 16 µg/mL | > 16 µg/mL | < 16 µg/mL | < 16 µg/mL | < 16 µg/mL | –
4 | C[C@H](N)[C@@H]1CC[C@@H](N)[C@@H](O[C@@H]2[C@@H](N)[C@H](O)[C@@H](N)[C@H](O)[C@H]2O[C@@H]2O[C@H](CO)[C@@H](O[C@H]3O[C@@H](CN)[C@@H](O)[C@H](O)[C@H]3N)[C@H]2O)O1 [Compound 8, (2S,3S,4R,5R,6R)-5-amino-2-(aminomethyl)-6-(((2R,3S,4R,5S)-5-(((1R,2R,3S,4R,5R,6S)-3,5-diamino-2-(((2R,3R,6S)-3-amino-6-((S)-1-aminoethyl)tetrahydro-2H-pyran-2-yl)oxy)-4,6-dihydroxycyclohexyl)oxy)-4-hydroxy-2-(hydroxymethyl)tetrahydrofuran-3-yl)oxy)tetrahydro-2H-pyran-3,4-diol] | < 16 µg/mL | < 16 µg/mL | < 16 µg/mL | < 16 µg/mL | < 16 µg/mL | < 16 µg/mL | > 16 µg/mL | < 16 µg/mL | < 16 µg/mL | < 16 µg/mL | < 16 µg/mL | < 16 µg/mL | > 16 µg/mL | < 16 µg/mL | < 16 µg/mL | < 16 µg/mL | < 16 µg/mL | < 16 µg/mL | –
5 | gentamicin [reference compound] | – | – | – | – | – | – | – | – | – | – | – | – | – | – | – | – | – | – | MIC50 [2]: + (+ = MIC50 or MIC90 ≤ 16 μg/mL); MIC90 [2]: − (− = MIC50 or MIC90 > 16 μg/mL); MIC50 [3]: +/+ (+ = MIC50 or MIC90 ≤ 16 μg/mL); MIC90 [3]: +/+ (+ = MIC50 or MIC90 ≤ 16 μg/mL); MIC50 [4]: + (+ = MIC50 or MIC90 ≤ 16 μg/mL); MIC90 [4]: − (− = MIC50 or MIC90 > 16 μg/mL); MIC50 [5]: +/+ (+ = MIC50 or MIC90 ≤ 16 μg/mL); MIC90 [5]: +/+ (+ = MIC50 or MIC90 ≤ 16 μg/mL); MIC50 (P. aeruginosa [6]): +/+ (+ = MIC50 or MIC90 ≤ 16 μg/mL); MIC90 (P. aeruginosa [6]): +/+ (+ = MIC50 or MIC90 ≤ 16 μg/mL); MIC50 [7]: −/− (− = MIC50 or MIC90 > 16 μg/mL); MIC90 [7]: −/− (− = MIC50 or MIC90 > 16 μg/mL)

From patent US20250032524A1, “BROAD SPECTRUM AMINOGLYCOSIDES AND USES THEREOF” (REVAGENIX, INC., priority 2022, published 2025)
